Measurements taken from ChEMBL document CHEMBL5236630, “Discovery of selective platelet-derived growth factor receptor-beta (PDGFR-β) bifunctional small-molecule degraders” (Bioorg Med Chem, 2023).
Values belong to the compound of their own block, whether it stands above or below them. Active and inactive are the calls of the source. No cut-off for these calls is given here.

Columns and labels:
[1] = Induction of apoptosis in human U87 cells assessed as late apoptotic cells at 5 uM incubated for 48 hrs by Annexin-V/PI staining based flow cytometry (Rvb= 2.97%); format: functional, U-87MG ATCC
[2] = Induction of apoptosis in human U87 cells assessed as late apoptotic cells at 20 uM incubated for 48 hrs by Annexin-V/PI staining based flow cytometry (Rvb= 2.97%); format: functional, U-87MG ATCC
U-87MG ATCC [3] = assay: Induction of cell cycle arrest in human U87 cells assessed increase of cells in S phase at 1 to 10 uM incubated for 48 hrs by flow cytometry; format: functional, cell-based; details: dose 1-10 µM
[4] = Induction of apoptosis in human U87 cells assessed as necrotic cells at 5 uM incubated for 48 hrs by Annexin-V/PI staining based flow cytometry (Rvb= 1.13%); format: functional, U-87MG ATCC
HEK293 = assay: Cytotoxicity against human HEK293 cells assessed as reduction in cell viability at 50 uM incubated for 48 hrs by MTT assay; format: toxicity, cell-based; details: hek293, 48 h
[5] = Induction of apoptosis in human U87 cells assessed as late apoptotic cells at 1 uM incubated for 48 hrs by Annexin-V/PI staining based flow cytometry (Rvb= 2.97%); format: functional, U-87MG ATCC
[6] = Induction of apoptosis in human U87 cells assessed as late apoptotic cells at 10 uM incubated for 48 hrs by Annexin-V/PI staining based flow cytometry (Rvb= 2.97%); format: functional, U-87MG ATCC
[7] = molecular target: T1, von Hippel-Lindau disease tumor suppressor/Platelet-derived growth factor receptor beta (Homo sapiens) (UniProt P09619+P40337); assay: Protac activity at VHL/PDGFRbeta in human U87 cells assessed as reduction in PDGFRbeta protein level at 10 uM preincubated with Carfilzomib for 2hrs followed by compound treatment and measured after 48 hrs by Western blot analysis; format: cell-based
T1 sequence (P09619 33-1106 limits assumed): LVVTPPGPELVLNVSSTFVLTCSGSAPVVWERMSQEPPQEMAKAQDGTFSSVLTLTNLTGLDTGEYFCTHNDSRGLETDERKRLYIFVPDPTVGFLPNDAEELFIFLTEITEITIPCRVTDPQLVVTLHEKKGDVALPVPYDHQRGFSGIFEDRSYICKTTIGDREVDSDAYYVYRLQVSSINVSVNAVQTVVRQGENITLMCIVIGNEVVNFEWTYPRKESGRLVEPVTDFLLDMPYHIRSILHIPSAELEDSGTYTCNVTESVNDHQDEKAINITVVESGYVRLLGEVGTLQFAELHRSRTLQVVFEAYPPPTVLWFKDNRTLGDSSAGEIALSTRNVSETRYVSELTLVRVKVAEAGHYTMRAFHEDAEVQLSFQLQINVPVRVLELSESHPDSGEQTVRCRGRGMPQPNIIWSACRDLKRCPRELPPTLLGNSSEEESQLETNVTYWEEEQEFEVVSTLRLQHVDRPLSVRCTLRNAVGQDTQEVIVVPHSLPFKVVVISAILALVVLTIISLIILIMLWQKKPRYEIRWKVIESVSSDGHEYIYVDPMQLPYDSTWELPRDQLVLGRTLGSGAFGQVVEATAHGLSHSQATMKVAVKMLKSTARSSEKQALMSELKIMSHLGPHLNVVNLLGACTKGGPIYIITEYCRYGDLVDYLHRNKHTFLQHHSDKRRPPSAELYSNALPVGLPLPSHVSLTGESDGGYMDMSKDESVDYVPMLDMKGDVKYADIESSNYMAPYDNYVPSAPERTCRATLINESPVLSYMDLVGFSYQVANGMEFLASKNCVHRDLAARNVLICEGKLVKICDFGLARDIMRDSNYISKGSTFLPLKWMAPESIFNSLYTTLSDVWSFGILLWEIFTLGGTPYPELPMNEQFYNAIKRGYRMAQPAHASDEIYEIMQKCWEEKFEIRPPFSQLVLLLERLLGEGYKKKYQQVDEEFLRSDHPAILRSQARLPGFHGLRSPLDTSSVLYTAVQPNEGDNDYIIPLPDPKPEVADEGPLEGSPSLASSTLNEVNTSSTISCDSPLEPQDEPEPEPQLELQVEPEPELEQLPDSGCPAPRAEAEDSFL
T1 sequence (P40337 whole entry partner): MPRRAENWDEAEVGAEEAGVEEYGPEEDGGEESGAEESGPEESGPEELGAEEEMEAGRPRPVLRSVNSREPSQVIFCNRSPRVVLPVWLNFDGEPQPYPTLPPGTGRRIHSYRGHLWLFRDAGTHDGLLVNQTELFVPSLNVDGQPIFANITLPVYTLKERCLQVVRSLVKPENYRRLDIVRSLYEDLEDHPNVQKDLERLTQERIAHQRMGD

[8] = Induction of apoptosis in human U87 cells assessed as viable cells at 1 uM incubated for 48 hrs by Annexin-V/PI staining based flow cytometry (Rvb= 93.16%); format: functional, U-87MG ATCC; details: U-87 MG, read-out: Activity
[9] = Induction of apoptosis in human U87 cells assessed as necrotic cells at 20 uM incubated for 48 hrs by Annexin-V/PI staining based flow cytometry (Rvb= 1.13%); format: functional, U-87MG ATCC
[10] = Induction of apoptosis in human U87 cells assessed as early apoptotic cells at 10 uM incubated for 48 hrs by Annexin-V/PI staining based flow cytometry (Rvb= 2.74%); format: functional, U-87MG ATCC
[11] = Induction of apoptosis in human U87 cells assessed as necrotic cells at 0.1 uM incubated for 48 hrs by Annexin-V/PI staining based flow cytometry (Rvb= 1.13%); format: functional, U-87MG ATCC
[12] = Antiproliferative activity against human U87 cells assessed as reduction in cell viability incubated for 48 hrs by MTT assay; format: functional, cell-based, U-87MG ATCC; details: U-87 MG
[13] = Induction of apoptosis in human U87 cells assessed as necrotic cells at 1 uM incubated for 48 hrs by Annexin-V/PI staining based flow cytometry (Rvb= 1.13%); format: functional, U-87MG ATCC
[14] = molecular target: Serine/threonine-protein kinase B-raf (Homo sapiens) (UniProt P15056); assay: Protac activity at BRAF in human EA.hy 926 cells assessed decrease in BRAF level at 10 uM incubated for 72 hrs by Western blot analysis; format: cell-based
Serine/threonine-protein kinase B-raf (Homo sapiens), sequence (P15056 whole entry): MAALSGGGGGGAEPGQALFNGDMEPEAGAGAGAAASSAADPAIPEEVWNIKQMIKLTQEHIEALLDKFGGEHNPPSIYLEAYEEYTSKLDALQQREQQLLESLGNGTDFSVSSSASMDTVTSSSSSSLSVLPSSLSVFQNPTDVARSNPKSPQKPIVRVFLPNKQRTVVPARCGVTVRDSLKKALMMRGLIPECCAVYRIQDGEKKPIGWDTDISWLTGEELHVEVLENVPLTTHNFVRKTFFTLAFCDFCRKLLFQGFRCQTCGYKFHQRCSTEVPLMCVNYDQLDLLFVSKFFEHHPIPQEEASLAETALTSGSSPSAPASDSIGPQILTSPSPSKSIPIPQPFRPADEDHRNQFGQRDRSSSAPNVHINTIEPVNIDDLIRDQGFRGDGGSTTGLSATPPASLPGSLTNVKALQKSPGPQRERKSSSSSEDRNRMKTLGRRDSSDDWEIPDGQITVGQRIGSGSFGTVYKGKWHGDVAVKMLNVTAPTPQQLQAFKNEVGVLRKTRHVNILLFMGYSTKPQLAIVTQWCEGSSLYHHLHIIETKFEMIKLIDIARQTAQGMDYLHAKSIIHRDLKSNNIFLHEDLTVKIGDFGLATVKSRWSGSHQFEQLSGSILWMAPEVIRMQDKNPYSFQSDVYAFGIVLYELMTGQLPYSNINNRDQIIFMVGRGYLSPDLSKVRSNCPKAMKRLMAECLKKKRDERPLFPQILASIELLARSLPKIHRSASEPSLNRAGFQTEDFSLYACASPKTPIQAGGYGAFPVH

[15] = Induction of apoptosis in human U87 cells assessed as early apoptotic cells at 5 uM incubated for 48 hrs by Annexin-V/PI staining based flow cytometry (Rvb= 2.74%); format: functional, U-87MG ATCC
[16] = Induction of apoptosis in human U87 cells assessed as viable cells at 0.1 uM incubated for 48 hrs by Annexin-V/PI staining based flow cytometry (Rvb= 93.16%); format: functional, U-87MG ATCC; details: U-87 MG, read-out: Activity
[17] = molecular target: T1, von Hippel-Lindau disease tumor suppressor/Platelet-derived growth factor receptor beta (Homo sapiens); assay: Protac activity at VHL/PDGFRbeta in human U87 cells assessed as reduction in PDGFRbeta protein level at 10 uM preincubated with MG-132 for 2hrs followed by compound treatment and measured after 48 hrs by Western blot analysis; format: cell-based
[18] = Induction of apoptosis in human U87 cells assessed as viable cells at 10 uM incubated for 48 hrs by Annexin-V/PI staining based flow cytometry (Rvb= 93.16%); format: functional, U-87MG ATCC; details: U-87 MG, read-out: Activity
[19] = molecular target: Platelet-derived growth factor receptor beta (Homo sapiens) (UniProt P09619); assay: Protac activity at PDGFRbeta in human U87 cells assessed as reduction in PDGFRbeta protein level at 10 uM incubated for 48 hrs by Western blot analysis; format: cell-based
Platelet-derived growth factor receptor beta (Homo sapiens), sequence (P09619 whole entry): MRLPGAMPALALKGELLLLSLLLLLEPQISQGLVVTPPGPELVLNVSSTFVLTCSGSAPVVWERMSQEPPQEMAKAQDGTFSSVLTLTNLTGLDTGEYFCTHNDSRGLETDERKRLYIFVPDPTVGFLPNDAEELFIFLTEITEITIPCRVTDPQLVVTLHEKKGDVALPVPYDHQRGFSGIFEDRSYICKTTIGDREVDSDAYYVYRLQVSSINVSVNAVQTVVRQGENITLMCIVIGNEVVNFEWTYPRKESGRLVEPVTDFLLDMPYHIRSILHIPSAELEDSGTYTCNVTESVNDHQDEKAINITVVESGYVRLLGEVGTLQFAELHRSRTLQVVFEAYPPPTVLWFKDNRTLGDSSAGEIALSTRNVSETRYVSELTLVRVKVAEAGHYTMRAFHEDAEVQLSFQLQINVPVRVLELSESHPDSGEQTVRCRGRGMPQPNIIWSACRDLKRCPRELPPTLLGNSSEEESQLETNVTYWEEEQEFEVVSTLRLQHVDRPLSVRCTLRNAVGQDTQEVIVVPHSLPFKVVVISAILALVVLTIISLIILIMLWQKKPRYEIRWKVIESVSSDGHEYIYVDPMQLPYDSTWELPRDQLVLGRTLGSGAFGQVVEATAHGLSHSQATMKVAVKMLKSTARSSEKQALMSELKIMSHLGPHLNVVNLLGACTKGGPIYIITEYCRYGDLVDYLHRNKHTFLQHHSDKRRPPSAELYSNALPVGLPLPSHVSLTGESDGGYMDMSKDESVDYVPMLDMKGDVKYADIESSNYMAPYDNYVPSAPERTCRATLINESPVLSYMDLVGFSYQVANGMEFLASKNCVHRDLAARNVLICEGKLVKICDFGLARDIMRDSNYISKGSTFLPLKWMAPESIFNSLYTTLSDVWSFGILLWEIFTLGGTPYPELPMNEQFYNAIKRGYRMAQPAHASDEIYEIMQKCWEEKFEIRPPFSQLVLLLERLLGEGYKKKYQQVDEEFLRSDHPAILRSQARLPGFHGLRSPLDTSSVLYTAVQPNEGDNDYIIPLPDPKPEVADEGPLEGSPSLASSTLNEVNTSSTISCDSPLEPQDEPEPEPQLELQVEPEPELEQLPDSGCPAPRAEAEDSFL

[20] = Induction of apoptosis in human U87 cells assessed as early apoptotic cells at 20 uM incubated for 48 hrs by Annexin-V/PI staining based flow cytometry (Rvb= 2.74%); format: functional, U-87MG ATCC
[21] = Induction of apoptosis in human U87 cells assessed as viable cells at 5 uM incubated for 48 hrs by Annexin-V/PI staining based flow cytometry (Rvb= 93.16%); format: functional, U-87MG ATCC; details: U-87 MG, read-out: Activity
U-87MG ATCC [22] = assay: Induction of cell cycle arrest in human U87 cells assessed decrease of cells in G2 phase at 1 to 10 uM incubated for 48 hrs by flow cytometry; format: functional, cell-based; details: dose 1-10 µM
[23] = Induction of apoptosis in human U87 cells assessed as early apoptotic cells at 0.1 uM incubated for 48 hrs by Annexin-V/PI staining based flow cytometry (Rvb= 2.74%); format: functional, U-87MG ATCC
[24] = molecular target: Platelet-derived growth factor receptor beta (Homo sapiens) (UniProt P09619); assay: Protac activity at PDGFRbeta in human U87 cells assessed as reduction in PDGFRbeta protein level at 0.1 to 10 uM incubated for 48 to 72 hrs by Western blot analysis; format: cell-based; details: dose 0.1-10 µM, time 48-72 hrs
[25] = molecular target: Platelet-derived growth factor receptor beta (Homo sapiens) (UniProt P09619); assay: Protac activity at PDGFRbeta in human U87 cells assessed as increase in VEGFR-2 protein level at 10 uM incubated for 72 hrs by Western blot analysis; format: cell-based
[26] = Induction of apoptosis in human U87 cells assessed as necrotic cells at 10 uM incubated for 48 hrs by Annexin-V/PI staining based flow cytometry (Rvb= 1.13%); format: functional, U-87MG ATCC
[27] = molecular target: T1, von Hippel-Lindau disease tumor suppressor/Platelet-derived growth factor receptor beta (Homo sapiens); assay: Protac activity at VHL/PDGFRbeta in human U87 cells assessed as reduction in PDGFRbeta protein level at 10 uM preincubated with VH032 for 2hrs followed by compound treatment and measured after 48 hrs by Western blot analysis; format: cell-based
[28] = molecular target: T1, von Hippel-Lindau disease tumor suppressor/Platelet-derived growth factor receptor beta (Homo sapiens); assay: Protac activity at VHL/PDGFRbeta in human U87 cells assessed as reduction in PDGFRbeta protein level at 10 uM incubated for 4 to 16 hrs by Western blot analysis; format: cell-based; details: time 4-16 hrs
[29] = molecular target: T1, von Hippel-Lindau disease tumor suppressor/Platelet-derived growth factor receptor beta (Homo sapiens); assay: Protac activity at VHL/PDGFRbeta in human U87 cells assessed as reduction in PDGFRbeta protein level at 0.1 to 15 uM incubated for 72 hrs by Western blot analysis; format: cell-based; details: dose 0.1-15 µM
[30] = Induction of apoptosis in human U87 cells assessed as viable cells at 20 uM incubated for 48 hrs by Annexin-V/PI staining based flow cytometry (Rvb= 93.16%); format: functional, U-87MG ATCC; details: U-87 MG, read-out: Activity
[31] = Induction of apoptosis in human U87 cells assessed as late apoptotic cells at 0.1 uM incubated for 48 hrs by Annexin-V/PI staining based flow cytometry (Rvb= 2.97%); format: functional, U-87MG ATCC
[32] = molecular target: T1, von Hippel-Lindau disease tumor suppressor/Platelet-derived growth factor receptor beta (Homo sapiens); assay: Protac activity at VHL/PDGFRbeta in human U87 cells assessed as reduction in PDGFRbeta protein level at 10 uM preincubated with sorafenib for 2hrs followed by compound treatment and measured after 48 hrs by Western blot analysis; format: cell-based
[33] = molecular target: T1, von Hippel-Lindau disease tumor suppressor/Platelet-derived growth factor receptor beta (Homo sapiens); assay: Protac activity at VHL/PDGFRbeta in human U87 cells assessed as reduction in PDGFRbeta protein level at 10 uM preincubated with Leupeptin for 2hrs followed by compound treatment and measured after 48 hrs by Western blot analysis; format: cell-based
[34] = Induction of apoptosis in human U87 cells assessed as early apoptotic cells at 1 uM incubated for 48 hrs by Annexin-V/PI staining based flow cytometry (Rvb= 2.74%); format: functional, U-87MG ATCC
[35] = molecular target: Platelet-derived growth factor receptor beta (Homo sapiens) (UniProt P09619); assay: Protac activity at PDGFRbeta in human U87 cells assessed as reduction in PDGFRbeta protein level at 10 uM incubated for 72 hrs by Western blot analysis; format: cell-based; design: scale not given: the % may be the effect or the level left
HepG2 = assay: Antiproliferative activity against human HepG2 cells assessed as reduction in cell viability incubated for 48 hrs by MTT assay; format: functional, cell-based; details: HepG2, 48 h
EA.hy 926 = assay: Antiproliferative activity against human EA.hy 926 cells assessed as reduction in cell viability incubated for 48 hrs by MTT assay; format: functional, cell-based; details: EA.hy 926, 48 h

Activity [7]: Active
Activity [14]: Active
Activity [17]: inactive
Activity [19]: Active
Activity [24]: Dose-Dependent Effect
Activity [25]: Active
Activity [27]: Active
Activity [28]: Dose-Dependent Effect
Activity [29]: Active
Activity [32]: Active
Activity [33]: inactive
Activity [35]: > 70%
SMILES: Cc1ncsc1-c1ccc(CNC(=O)[C@@H]2C[C@@H](O)CN2C(=O)[C@@H](NC(=O)CCCNC(=O)c2cc(Oc3ccc(NC(=O)Nc4ccc(Cl)c(C(F)(F)F)c4)cc3)ccn2)C(C)(C)C)cc1
Activity [1]: 1.59%
Activity [2]: 4.56%
Activity (U-87MG ATCC [3]): Active
Activity [4]: 0.63%
Activity (HEK293): Non-Toxic
Activity [5]: 1.71%
Activity [6]: 2.03%
viability at 1 µM [8]: 96.2%
Activity [9]: 1.63%
Activity [10]: 2.49%
Activity [11]: 0.89%
IC50 [12]: 12.3 µM
Activity [13]: 0.49%
Activity [15]: 1.66%
viability at 0.1 µM [16]: 95.3%
viability at 10 µM [18]: 94.6%
Activity [20]: 3.25%
viability at 5 µM [21]: 96.1%
Activity (U-87MG ATCC [22]): Active
Activity [23]: 2.02%
Activity [26]: 0.85%
viability at 20 µM [30]: 90.6%
Activity [31]: 1.82%
Activity [34]: 1.66%

IC50 (HepG2): > 50 µM
Activity [29]: inactive
SMILES: Cc1ncsc1-c1ccc(CNC(=O)[C@@H]2C[C@H](O)CN2C(=O)[C@@H](NC(=O)CCCNC(=O)c2cc(Oc3ccc(NC(=O)Nc4ccc(Cl)c(C(F)(F)F)c4)cc3)ccn2)C(C)(C)C)cc1
IC50 [12]: 20.3 µM
IC50 (EA.hy 926): > 50 µM

Further lines, the compound ahead of its results:

SMILES: O=C1CCC(N2Cc3c(NC(=O)CCCNC(=O)c4cc(Oc5ccc(NC(=O)Nc6ccc(Cl)c(C(F)(F)F)c6)cc5)ccn4)cccc3C2=O)C(=O)N1 (stereo unspecified)
IC50 (HepG2): 0.039 µM
Activity (HEK293): Non-Toxic
Activity [19]: Active
Activity [24]: Dose-Dependent Effect
Activity [25]: Active
IC50 (EA.hy 926): 13.4 µM
Activity [35]: > 70%

SMILES: CNC(=O)c1cc(Oc2ccc(NC(=O)Nc3ccc(Cl)c(C(F)(F)F)c3)cc2)ccn1 [SORAFENIB]
IC50 (HepG2): 2.69 µM
Activity (HEK293): Non-Toxic
IC50 [12]: 12.7 µM
IC50 (EA.hy 926): 11 µM

SMILES: O=C(CNc1cccc2c1C(=O)N(C1CCC(=O)NC1=O)C2=O)NCCCCNC(=O)c1cc(Oc2ccc(NC(=O)Nc3ccc(Cl)c(C(F)(F)F)c3)cc2)ccn1 (stereo unspecified)
Activity (HEK293): Non-Toxic
Activity [19]: Active
Activity [24]: Dose-Dependent Effect
Activity [25]: Active
Activity [35]: > 70%
